Among the data in ChEMBL document CHEMBL3991601, “The target landscape of clinical kinase drugs” (Science, 2017) are Kd values, retold here.

Calls of active or inactive are those of the source. For most assays here, no stated cut-off is given here; in the data, actives have a measured Kd and inactives only a lower limit.

The target in assay [1] is T1, NUAK family SNF1-like kinase 2 (Homo sapiens, UniProt Q9H093).
T1 sequence (Q9H093 whole entry): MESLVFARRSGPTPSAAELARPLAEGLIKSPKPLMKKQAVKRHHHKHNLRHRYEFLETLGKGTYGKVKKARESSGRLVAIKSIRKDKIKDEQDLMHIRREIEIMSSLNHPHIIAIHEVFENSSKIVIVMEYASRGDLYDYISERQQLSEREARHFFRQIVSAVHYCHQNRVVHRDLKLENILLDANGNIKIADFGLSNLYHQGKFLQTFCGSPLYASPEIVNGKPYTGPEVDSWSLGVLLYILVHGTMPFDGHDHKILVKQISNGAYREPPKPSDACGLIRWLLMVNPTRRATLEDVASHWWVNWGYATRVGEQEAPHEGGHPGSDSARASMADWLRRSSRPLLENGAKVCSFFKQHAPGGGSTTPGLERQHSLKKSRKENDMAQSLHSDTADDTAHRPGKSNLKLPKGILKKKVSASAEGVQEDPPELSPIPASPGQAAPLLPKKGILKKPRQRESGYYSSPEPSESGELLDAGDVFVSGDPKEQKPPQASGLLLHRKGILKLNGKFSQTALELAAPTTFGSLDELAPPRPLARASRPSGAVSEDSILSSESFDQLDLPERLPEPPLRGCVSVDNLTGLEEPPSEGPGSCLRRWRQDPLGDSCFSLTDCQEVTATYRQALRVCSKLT

Assay [2] addresses Ribosomal protein S6 kinase alpha-4 (Homo sapiens, UniProt O75676).
Assay [3] deals with Cyclin-dependent kinase 2 (Homo sapiens, UniProt P24941).
In assay [4] the target is T2, Serine/threonine-protein kinase Nek3 (Homo sapiens, UniProt P51956).
T2 sequence (P51956 whole entry): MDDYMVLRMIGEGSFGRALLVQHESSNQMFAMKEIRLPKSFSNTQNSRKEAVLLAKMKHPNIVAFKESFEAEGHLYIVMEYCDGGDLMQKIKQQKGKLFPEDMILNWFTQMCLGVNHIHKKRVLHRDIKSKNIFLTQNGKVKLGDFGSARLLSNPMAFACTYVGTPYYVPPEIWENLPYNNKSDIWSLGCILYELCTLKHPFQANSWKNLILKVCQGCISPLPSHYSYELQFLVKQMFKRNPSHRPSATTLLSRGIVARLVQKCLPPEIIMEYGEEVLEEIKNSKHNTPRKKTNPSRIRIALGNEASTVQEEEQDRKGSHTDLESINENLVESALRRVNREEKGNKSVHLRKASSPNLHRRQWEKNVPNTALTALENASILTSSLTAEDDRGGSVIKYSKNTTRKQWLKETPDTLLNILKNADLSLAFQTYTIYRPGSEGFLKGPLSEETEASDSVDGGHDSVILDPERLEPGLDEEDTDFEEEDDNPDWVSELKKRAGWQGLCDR

The target in assay [5] is T3, Discoidin domain-containing receptor 2 (Homo sapiens, UniProt Q16832).
T3 sequence (Q16832 whole entry): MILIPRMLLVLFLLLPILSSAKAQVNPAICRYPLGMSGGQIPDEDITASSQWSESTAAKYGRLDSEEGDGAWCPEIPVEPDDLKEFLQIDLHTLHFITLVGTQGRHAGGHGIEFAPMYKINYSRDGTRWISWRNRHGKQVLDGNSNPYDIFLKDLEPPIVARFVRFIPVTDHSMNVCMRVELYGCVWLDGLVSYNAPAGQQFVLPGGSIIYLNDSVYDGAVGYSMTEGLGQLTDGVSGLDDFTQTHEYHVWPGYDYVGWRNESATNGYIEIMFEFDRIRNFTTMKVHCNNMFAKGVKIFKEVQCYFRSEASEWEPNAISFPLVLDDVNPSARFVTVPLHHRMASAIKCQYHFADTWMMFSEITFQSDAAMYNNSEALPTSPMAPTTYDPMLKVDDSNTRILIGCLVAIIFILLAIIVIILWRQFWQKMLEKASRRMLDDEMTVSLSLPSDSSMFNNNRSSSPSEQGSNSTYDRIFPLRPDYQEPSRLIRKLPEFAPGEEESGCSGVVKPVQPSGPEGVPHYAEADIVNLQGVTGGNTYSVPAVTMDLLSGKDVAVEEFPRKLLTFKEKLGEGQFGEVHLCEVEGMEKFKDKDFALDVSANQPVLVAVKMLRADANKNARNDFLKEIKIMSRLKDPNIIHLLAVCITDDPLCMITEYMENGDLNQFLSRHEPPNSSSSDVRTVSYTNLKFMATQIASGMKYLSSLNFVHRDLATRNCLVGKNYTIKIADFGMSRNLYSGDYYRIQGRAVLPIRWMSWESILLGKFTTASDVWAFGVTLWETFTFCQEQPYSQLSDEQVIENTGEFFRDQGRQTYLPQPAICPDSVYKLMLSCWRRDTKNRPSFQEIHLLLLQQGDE

In assay [6] the target is Tyrosine-protein kinase Lyn (Homo sapiens, UniProt P07948).
For another assay, the target named is T4, Heme oxygenase 2 (Homo sapiens, UniProt P30519).
T4 sequence (P30519 whole entry): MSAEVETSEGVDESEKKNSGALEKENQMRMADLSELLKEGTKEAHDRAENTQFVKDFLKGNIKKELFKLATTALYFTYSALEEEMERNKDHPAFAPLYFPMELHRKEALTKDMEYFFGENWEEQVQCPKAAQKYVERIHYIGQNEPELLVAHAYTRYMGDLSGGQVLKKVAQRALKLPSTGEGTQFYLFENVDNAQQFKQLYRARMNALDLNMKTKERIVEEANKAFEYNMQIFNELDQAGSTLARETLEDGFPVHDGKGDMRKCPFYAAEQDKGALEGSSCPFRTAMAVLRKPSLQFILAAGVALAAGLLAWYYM

The target in a further assay is Obg-like ATPase 1 (Homo sapiens, UniProt Q9NTK5).
Sequence of Obg-like ATPase 1 (Q9NTK5 whole entry, looked up): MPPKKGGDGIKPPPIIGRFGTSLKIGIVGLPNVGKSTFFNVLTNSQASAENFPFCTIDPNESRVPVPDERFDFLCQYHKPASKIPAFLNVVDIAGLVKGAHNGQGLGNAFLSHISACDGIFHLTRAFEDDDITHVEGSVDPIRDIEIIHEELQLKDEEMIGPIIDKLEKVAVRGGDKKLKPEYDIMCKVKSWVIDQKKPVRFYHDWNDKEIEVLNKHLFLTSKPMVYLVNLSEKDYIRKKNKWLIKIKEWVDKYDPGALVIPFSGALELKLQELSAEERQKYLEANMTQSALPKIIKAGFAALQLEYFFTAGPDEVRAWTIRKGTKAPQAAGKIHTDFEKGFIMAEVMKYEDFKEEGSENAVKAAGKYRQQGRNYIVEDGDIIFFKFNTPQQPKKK

Sequence of Tyrosine-protein kinase Lyn (P07948 whole entry): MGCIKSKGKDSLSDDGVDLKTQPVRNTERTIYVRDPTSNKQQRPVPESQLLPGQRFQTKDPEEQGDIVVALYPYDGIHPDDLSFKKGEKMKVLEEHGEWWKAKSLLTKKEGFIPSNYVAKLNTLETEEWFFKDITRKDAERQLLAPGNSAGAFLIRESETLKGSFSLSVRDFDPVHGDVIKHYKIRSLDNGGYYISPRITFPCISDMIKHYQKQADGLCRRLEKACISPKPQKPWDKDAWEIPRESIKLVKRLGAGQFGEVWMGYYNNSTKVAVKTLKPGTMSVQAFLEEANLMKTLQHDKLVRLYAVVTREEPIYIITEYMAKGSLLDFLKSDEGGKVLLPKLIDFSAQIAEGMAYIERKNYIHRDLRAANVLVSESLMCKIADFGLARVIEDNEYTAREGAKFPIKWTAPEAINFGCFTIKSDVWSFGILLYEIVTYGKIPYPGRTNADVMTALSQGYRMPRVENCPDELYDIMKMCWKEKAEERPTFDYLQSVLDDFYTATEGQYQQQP
Sequence of Ribosomal protein S6 kinase alpha-4 (O75676 whole entry): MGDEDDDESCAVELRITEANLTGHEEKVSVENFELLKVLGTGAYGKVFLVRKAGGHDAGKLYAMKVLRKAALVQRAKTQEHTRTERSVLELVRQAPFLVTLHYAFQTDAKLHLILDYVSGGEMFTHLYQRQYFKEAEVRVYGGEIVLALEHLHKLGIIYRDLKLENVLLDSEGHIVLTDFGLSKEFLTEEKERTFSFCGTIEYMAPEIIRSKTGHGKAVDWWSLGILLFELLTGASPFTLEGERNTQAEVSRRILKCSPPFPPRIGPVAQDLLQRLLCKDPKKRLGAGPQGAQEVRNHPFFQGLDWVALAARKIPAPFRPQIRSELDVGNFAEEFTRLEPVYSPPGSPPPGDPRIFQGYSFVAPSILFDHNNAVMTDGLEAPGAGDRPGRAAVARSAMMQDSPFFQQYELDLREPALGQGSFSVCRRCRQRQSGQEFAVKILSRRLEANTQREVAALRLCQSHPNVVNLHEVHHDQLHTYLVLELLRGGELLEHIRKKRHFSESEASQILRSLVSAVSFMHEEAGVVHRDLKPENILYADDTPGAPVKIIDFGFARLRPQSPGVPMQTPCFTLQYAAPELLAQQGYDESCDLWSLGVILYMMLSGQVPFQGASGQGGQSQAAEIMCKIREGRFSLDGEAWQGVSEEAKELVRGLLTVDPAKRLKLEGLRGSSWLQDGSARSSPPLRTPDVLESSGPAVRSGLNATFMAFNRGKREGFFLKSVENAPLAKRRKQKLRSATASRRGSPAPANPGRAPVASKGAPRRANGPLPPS

On to `CCc1nc(C(N)=O)c(Nc2ccc(N3CCC(N4CCN(C)CC4)CC3)c(OC)c2)nc1NC1CCOCC1` [GILTERITINIB], for which the Kd – broadly, the equilibrium constant for the complex coming apart – is > 30 µM (inactive) in assay [1]; > 30 µM (inactive) in assay [2]; > 30 µM (inactive) in assay [3]; 2.84 µM (active) in assay [4]; > 30 µM (inactive) in assay [5]; > 30 µM (inactive) in assay [6]. Further, on Heme oxygenase 2, the Kd was > 30 µM (inactive).

As to `O[C@H]1CC[C@H](Nc2ncc3nc(Nc4c(F)cc(F)cc4F)n([C@H]4CCOC4)c3n2)CC1` [TANZISERTIB], the Kd in assay [1], in assay [2], in assay [3], in assay [4], in assay [5] and in assay [6] was > 30 µM (inactive) in each case. Also, the Kd at Heme oxygenase 2 is > 30 µM (inactive).

Consider `FC(F)(F)c1ccc(CNc2ccc(Cc3c[nH]c4ncc(Cl)cc34)cn2)cn1` [PEXIDARTINIB], for which the Kd in assay [1], in assay [2], in assay [3], in assay [4], in assay [5] and in assay [6] was > 30 µM (inactive) throughout. The Kd at Heme oxygenase 2 is > 30 µM (inactive).

On to `CC1(C)CNc2cc(NC(=O)c3cccnc3NCc3ccncc3)ccc21` [MOTESANIB], for which the Kd on Heme oxygenase 2 and on Obg-like ATPase 1 was > 30 µM (inactive) in each case.

Turning to `COc1cc2c(N3CCN(C(=O)Nc4ccc(OC(C)C)cc4)CC3)ncnc2cc1OCCCN1CCCCC1` [TANDUTINIB], the Kd at Obg-like ATPase 1 was > 30 µM (inactive).

Consider `O=C(Nc1ccc(OC(F)(F)F)cc1)c1sccc1NCc1ccnc2ccccc12` [OSI-930], for which the Kd in assay [1], in assay [2], in assay [3], in assay [4], in assay [5] and in assay [6] was > 30 µM (inactive) in each case. Further, the Kd at Heme oxygenase 2 is > 30 µM (inactive).

On to `O=C(O)c1ccc2c(c1)nc(Nc1cccc(Cl)c1)c1ccncc12` [SILMITASERTIB], for which the Kd in assay [1] is > 30 µM (inactive); in assay [2], > 30 µM (inactive); in assay [3], 1.69 µM (active); in assay [4], > 30 µM (inactive); in assay [5], > 30 µM (inactive); in assay [6], > 30 µM (inactive). For the same compound, on Heme oxygenase 2, the Kd was > 30 µM (inactive).

In the case of `CN(C)C/C=C/C(=O)Nc1cc2c(Nc3ccc(F)c(Cl)c3)ncnc2cc1O[C@H]1CCOC1` [AFATINIB], the Kd on Heme oxygenase 2 and on Obg-like ATPase 1 was > 30 µM (inactive) throughout.

In the case of `CCN1CCN(Cc2ccc(Nc3ncc(F)c(-c4cc(F)c5nc(C)n(C(C)C)c5c4)n3)nc2)CC1` [ABEMACICLIB], the Kd (in assay [1]; in assay [2]; in assay [4]; in assay [5]; in assay [6]; at Heme oxygenase 2) was > 30 µM (inactive) each time.

Regarding `Cn1cnc2c(F)c(Nc3ccc(Br)cc3Cl)c(C(=O)NOCCO)cc21` [SELUMETINIB], the Kd on Heme oxygenase 2 and at Obg-like ATPase 1 was > 30 µM (inactive) throughout.

Turning to `O=c1[nH]c([C@@H]2CCCN2)nc2c1oc1ccc(Cl)cc12`, the Kd in assay [1], in assay [2], in assay [3], in assay [4], in assay [5] and in assay [6] was > 30 µM (inactive) each time. Besides, the Kd on Heme oxygenase 2 was > 30 µM (inactive).

On to `COc1cccc(Nc2ncnn3ccc(CN4CC[C@@H](N)[C@H](O)C4)c23)c1` [BMS-690514], for which the Kd in assay [1] is > 30 µM (inactive); in assay [2], > 30 µM (inactive); in assay [3], > 30 µM (inactive); in assay [4] it was > 30 µM (inactive); in assay [5], > 30 µM (inactive); in assay [6], 0.887 µM (active). Also, at Heme oxygenase 2, the Kd is > 30 µM (inactive).

In the case of `CC(C)(O)CC(=O)NCCn1ccc2ncnc(Nc3ccc(Oc4cccc(C(F)(F)F)c4)c(Cl)c3)c21` [TAK-285], the Kd in assay [1], in assay [2], in assay [3], in assay [4], in assay [5] and in assay [6] was > 30 µM (inactive) in each case. In addition, the Kd at Heme oxygenase 2 was > 30 µM (inactive).

Turning to `C=CCN(/C=C1/C(=O)O[C@H](COC)[C@@]2(C)C1=C(O)C(=O)C1=C2[C@H](OC(C)=O)C[C@]2(C)C(=O)CC[C@@H]12)CC=C` [SONOLISIB], the Kd in assay [1], in assay [2], in assay [3], in assay [4], in assay [5] and in assay [6] was > 30 µM (inactive) throughout. Further, the Kd on Heme oxygenase 2 was > 30 µM (inactive).

Regarding `CN1CCN(c2nc(C3=C(c4c[nH]c5ccccc45)C(=O)NC3=O)c3ccccc3n2)CC1` [SOTRASTAURIN], the Kd in assay [1], in assay [2], in assay [3], in assay [4], in assay [5] and in assay [6] was > 30 µM (inactive) in each case. Besides, at Heme oxygenase 2, the Kd was > 30 µM (inactive).

On to `COc1cc2c(Oc3ccc4[nH]c(C)cc4c3F)ncnc2cc1OCCCN1CCCC1` [CEDIRANIB], for which the Kd at Heme oxygenase 2 and on Obg-like ATPase 1 was > 30 µM (inactive) in each case.

In the case of `C[C@]1(O)C[C@@H](c2nc(-c3ccc4ccc(-c5ccccc5)nc4c3)c3c(N)nccn32)C1` [LINSITINIB], the Kd (in assay [1]; in assay [2]; in assay [4]; in assay [5]; on Heme oxygenase 2) was > 30 µM (inactive) each time.

As to `CC[C@@](C)(Nc1ccnc(-c2c[nH]c3ncccc23)n1)C(=O)NCC(F)(F)F` [DECERNOTINIB], the Kd in assay [1], in assay [2], in assay [3], in assay [4], in assay [5] and in assay [6] was > 30 µM (inactive) throughout. Also, at Heme oxygenase 2, the Kd was > 30 µM (inactive).
